Key:
[1] = system: DEX04 (DNA, aptamer) ATATCATATGCTCCAATTACACGACGAGGGACGAGGAGTACTTGCCAACGATAACGTCGTTGGATCTGTCTGTGCCCATATTACACTTGCGATCT; assay: fluorescence bead-binding, eluted DNA; settings: 150 nM aptamer
[2] = system: HOC6-S-S-C6-DEX04 (DNA, aptamer) ACACGACGAGGGACGAGGAGTACTTGCCAACGATAACGTCGTTGGATCTGTCTGTGCCC; assay: electrochemical impedance, Rct change
[3] = system: DEX01 (DNA, aptamer) ATATCATATGCTCCAATTACACCCCACGTAGTGTCACAGCACGCTTATAGTAAGTGAAGTGACGGGTTGCTGATGTGATATTACACTTGCGATCT; assay: fluorescence bead-binding saturation, eluted DNA; settings: immobilised compound (DXN Sepharose 6β beads); binding buffer; aptamer 50-400 nM
[4] = system: DEX03 (DNA, aptamer) ATATCATATGCTCCAATTACGCGTAGGGATGTGTAAGGTCTGTACACCTCGGTTTACTCTATGCTTCGCATATTGTCGATATTACACTTGCGATCT; assay: fluorescence bead-binding saturation, eluted DNA; settings: immobilised compound (DXN Sepharose 6β beads); binding buffer; aptamer 50-400 nM
[5] = system: DEX04 (DNA, aptamer) ATATCATATGCTCCAATTACACGACGAGGGACGAGGAGTACTTGCCAACGATAACGTCGTTGGATCTGTCTGTGCCCATATTACACTTGCGATCT; assay: fluorescence bead-binding saturation, eluted DNA; settings: immobilised compound (DXN Sepharose 6β beads); binding buffer; aptamer 50-400 nM
[6] = system: DEX06 (DNA, aptamer) ATATCATATGCTCCAATTACACACGAAACACAAGCAGTGAGACTGCCTACGTCCGTAGTTGTGTTGAGTTTGCTCTCCATATTACACTTGCGATCT; assay: fluorescence bead-binding saturation, eluted DNA; settings: immobilised compound (DXN Sepharose 6β beads); aptamer up to 400 nM; NB [sic]
[7] = system: DEX05 (DNA, aptamer) ATATCATATGCTCCAATTACAGGCTTGGATTAGTGTATCCAACTAGTATCGTGTATACTAGGCCCTTGCTACCCTGTGATATTACACTTGCGATCT; assay: fluorescence bead-binding saturation, eluted DNA; settings: immobilised compound (DXN Sepharose 6β beads); aptamer up to 400 nM; NB [sic]
[8] = system: DEX10 (DNA, aptamer) ATATCATATGCTCCAATTGGACAGCTGGCCGCGAAGCGAGACACGTATAAGGTACTATACGGCTGGCATATGTATCTGATATTACACTTGCGATCT; assay: fluorescence bead-binding saturation, eluted DNA; settings: immobilised compound (DXN Sepharose 6β beads); binding buffer; aptamer 50-400 nM
[9] = highest tested 1 nM (below detection limit for DXN), measured in 10 mM PBS pH 7.4

Question: Which results are given for C#C[C@]1(O)CC[C@H]2[C@@H]3CCC4=CC(=O)CC[C@@H]4[C@H]3CC[C@@]21C?
Answer: binding ([1]; immobilised compound (NET beads, 5 µL, 6–14 µmol/mL)): no; binding [2, 9]: no

Question: Which results are given for CC(=O)[C@H]1CC[C@H]2[C@@H]3CCC4=CC(=O)CC[C@]4(C)[C@H]3CC[C@]12C?
Answer: binding ([1]; immobilised compound (P4 beads, 20 µL, 4.4 nmol/mL)): no; binding [2, 9]: no

Question: How did the KD [3] turn out when C[C@@H]1C[C@H]2[C@@H]3CCC4=CC(=O)C=C[C@]4(C)[C@@]3(F)[C@@H](O)C[C@]2(C)[C@@]1(O)C(=O)CO was run?
Answer: The KD was 0.01571 µM.

Question: What about the KD [4] of the same compound?
Answer: The KD was 0.07283 µM.

Question: And the KD [5]?
Answer: Its KD is 0.01835 µM.

Question: And the binding [6]?
Answer: Its binding is “no”.

Question: And the binding [7]?
Answer: The binding was “no”.

Question: And the binding ([2]; free DXN 50 and 100 nM, 10 mM PBS pH 7.4, 10 mM ferri/ferrocyanide)?
Answer: The binding was “yes”.

Question: And the KD [8]?
Answer: The KD was 0.715 µM.

Question: C[C@]12CC[C@@H]3c4ccc(O)cc4CC[C@H]3[C@@H]1CC[C@@H]2O was tested. Which binding ([1]; immobilised compound (E2 beads, 5 µL, 6–14 µmol/mL)) did it give?
Answer: Its binding is “no”.

Question: What about the binding [2, 9] of the same compound?
Answer: Its binding is “no”.

Source: PMC6488579 (2019)
